Data: US20210372995A1, “BIOMIMETIC PLATFORMS TO MODEL VASCULAR PATHOPHYSIOLOGY, DIAGNOSTICS, AND THERAPY” (The Johns Hopkins University, priority 2017, published 2021)

Legend:
hTERT HAEC = assay: NO production by hTERT HAEC in 3D scaffolds (conditioned media, Seivers NO analyzer); assay type: cell-based, human; conditions: 1 μM, 30 minutes; HAEC growing 2 months in 3D scaffolds
Procedure: Endothelial cells have many functions including the production of nitric oxide (NO). NO is a vasoactive agent important for modulating the vascular smooth muscle tone (Davidge, S. T., et al., Circ Res 1995, 77 (2), 274-83). The confluent cells growing for 2 months in the tubes were tested for NO production to determine endothelial function and viability. To qualitatively assess the NO production, 50 μL of the conditioned-media was analyzed using Seivers NO analyzer. FIGS. 13A-13C show NO production by hTERT HAEC with and without calcium ionophore stimulation. A 7- to 35-fold increase of NO was observed when HAEC growing in 3D scaffolds was stimulated with 1 μM A23187 calcium ionophore for 30 minutes. Others have reported twofold NO increase after 60-minute incubation of HAEC in 1 μM ionomycin grown on well plates (Cosentino, F., et al., Circulation 1997, 96 (1), 25-8). Using bovine coronary microvascular endothelial cells, a 3-fold increase was observed when stimulated with 1 μM A23187 calcium ionophore for 5 hours (Davidge, S. T., et al., Circ Res 1995, 77 (2), 274-83). […] There is difficulty in direct comparison of results with reported observations due to differences in methodology, analysis, and cell types. […] The higher increase in NO production warrants further investigation if 3D geometry affects HAEC NO production. […]

[1] = system: bovine coronary microvascular endothelial cells; conditions: 1 μM, 5 hours; cited from earlier work
fibroblasts = conditions: 100 µM; cited from earlier work
[2] = cited from earlier work
HAEC = conditions: 1 μM, 60-minute incubation; HAEC on well plates; cited from earlier work
HPASMC = assay: Contractility of aligned HPASMC on microwrinkled PDMS; assay type: cell-based, human; conditions: 1 μM, 10 minutes
Procedure: HPASMC cultivated on microwrinkled PDMS were treated with angiotensin ii (1 μM) and serial phase images were taken (1, 3, 10 minutes, from left to right) to assess cell contraction. […] Scale bar=50 μm.
A 6 μm PDMS film was stretched by 20% with a uniaxial stretching system, followed by exposure to oxygen plasma (Plasma Etcher Inc.) at 80 W for 60 minutes to generate wrinkles (FIG. 1A-FIG. 1C and FIG. 16). […] To test the contractility of aligned HPASMC, HPASMC were exposed to angiotensin II (1 μM; Sigma Aldrich, St. Louis, Mo.) for 10 minutes. […] A more quantitative measurement of SMC contraction is employed as described in the Experimental Design section.

[3] = system: human coronary artery endothelial cells; conditions: 20 ng/mL; cited from earlier work

## CNc1ccc2oc(C[C@H]3O[C@@]4(CC[C@H]3C)O[C@H]([C@H](C)C(=O)c3ccc[nH]3)[C@H](C)C[C@H]4C)nc2c1C(=O)O [A23187]
hTERT HAEC
  increase of NO: 7- to 35 fold
[1]
  NO increase: 3 fold

## COc1ccccc1Oc1c(NS(=O)(=O)c2ccc(C(C)(C)C)cc2)nc(-c2ncccn2)nc1OCCO [Bosentan]
fibroblasts
  proliferation in fibroblasts: altered
  smooth muscle alpha actin expression in fibroblasts: altered

## CCCCC[C@H](O)/C=C/[C@@H]1[C@H]2C/C(=C/CCCC(=O)O)O[C@H]2C[C@H]1O [Prostacyclin]
[2]
  half-life: 3 to 5 min

## C[C@H](CCC(=O)O)C[C@H](C)C[C@H](C)C(=O)/C=C(\O)[C@H](C)C[C@H](C)C/C=C/[C@@H](C)[C@@H](O)[C@@H](C)[C@@H](O)C[C@@H]1CC[C@@](C)([C@H]2CC[C@@](C)([C@@H](C)O)O2)O1 [ionomycin]
HAEC
  NO increase: twofold

## angiotensin II (DRVYIHPF; Angiotensin-2; UniProt P01019 25-32, looked up) [contractile agent (Sigma Aldrich)]
HPASMC
  cell contraction of aligned HPASMC: time-dependent contraction

## hepatocyte growth factor
[3]
  NO increase: twofold
